In PubChem BioAssay (NCI):
Values joined by “and” are separate entries in the source; they are usually repeats but may differ in a detail not shown here. Identical values can stand only once.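 Briefly, cells in 96-well plates were exposed to five compound concentrations for 48 h, and endpoints were estimated by linear interpolation. Here, GI50 denotes the concentration required for 50% inhibition of growth. TGI marks complete inhibition of growth.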

How the values were obtained:
Experiment in all cases: NCI tumour cell line growth inhibition, 48 h
[1] = system: A498 renal
[2] = system: CAKI-1 renal
[3] = system: IGROV1 ovarian
[4] = system: NCI-H522 lung
[5] = system: SNB-75 CNS
[6] = system: CCRF-CEM leukemia
[7] = system: LOX IMVI melanoma
[8] = system: HCC-2998 colon
[9] = system: SR leukemia
[10] = system: SK-OV-3 ovarian

| SMILES | TGI [1] | TGI [2] | TGI [3] | TGI [4] | TGI [5] | TGI [6] | TGI [7] | TGI [8] | TGI [9] | TGI [10] | GI50 [1] | GI50 [2] | GI50 [3] | GI50 [4] | GI50 [5] | GI50 [6] | GI50 [7] | GI50 [8] | GI50 [9] | GI50 [10] |
| --- | --- | --- | --- | --- | --- | --- | --- | --- | --- | --- | --- | --- | --- | --- | --- | --- | --- | --- | --- | --- |
| COC(=O)C(Cc1nc2ccccc2[nH]c1=O)C(=O)C(=O)Nc1ccc([N+](=O)[O-])cc1[N+](=O)[O-] (configuration not stated) | 40.9 µM | > 100 µM | 55.4 µM | 20.8 µM | 39.3 µM | 51.9 µM | 44.4 µM | 33.2 µM | > 100 µM | 64.6 µM |  |  |  |  |  |  |  |  |  |  |
| O=[N+]([O-])C1Cc2ccccc2OC1c1ccccc1 (configuration not stated) | > 100 µM | 99 µM | > 100 µM | > 100 µM | 55.5 µM | > 100 µM | 31.9 µM | > 100 µM | 66.6 µM | > 100 µM |  |  |  |  |  |  |  |  |  |  |
| O=C(O)C(Cl)(c1ccccc1)c1ccccc1 | > 100 µM | > 100 µM | > 100 µM | > 100 µM | > 100 µM | > 100 µM | > 100 µM | > 100 µM | > 100 µM | > 100 µM |  |  |  |  |  |  |  |  |  |  |
| COc1ccc2c(c1)CC[C@H](O)/C2=C/c1cc(OC)c(OC)c(OC)c1 |  | > 100 µM | > 100 µM | 6.16 µM | > 100 µM | > 100 µM | > 100 µM | > 100 µM | > 100 µM | > 100 µM | 0.0467 µM | 0.118 µM | 1.38 µM | 0.0824 µM | 0.0638 µM | 0.273 µM | 0.207 µM | 0.16 µM | 0.0546 µM | 0.138 µM |
| Cc1cccc(C)c1NC(=O)Nc1ccc(S(N)(=O)=O)cc1 | > 100 µM | > 100 µM | > 100 µM | > 100 µM | > 100 µM | > 100 µM | > 100 µM | > 100 µM | > 100 µM | > 100 µM |  |  |  |  |  |  |  |  |  |  |
| O=C(Nc1cccc(O)c1)C(=O)C(C(=O)c1ccc(Cl)c(Cl)c1)C1OC(=O)c2ccccc21 (configuration not stated) | 41.9 µM | 75 µM | 56.5 µM | 21.8 µM | 71.4 µM | 55.5 µM | 33.8 µM | 29.2 µM | 26.6 µM | 51.1 µM |  |  |  |  |  |  |  |  |  |  |
| COc1cccc(NC(=O)c2sc3nc4c(cc3c2N)C(=O)CCC4)c1 | 0.83 µM | > 100 µM | > 100 µM | 2.41 µM | 12.7 µM | > 100 µM | > 100 µM | > 100 µM | > 100 µM | > 78.1 µM | 0.0521 µM | 0.882 µM | 0.381 µM | 0.0499 µM | 0.0579 µM | 0.0893 µM | 1.71 µM | 0.279 µM | 0.133 µM | 0.183 µM |
| CNC(=O)Cc1nc(-c2cccc(NS(=O)(=O)c3c(F)cccc3F)c2F)c(-c2ccnc(Nc3ccccc3)n2)s1 | 18.5 µM | > 50 µM | > 19.6 µM | > 50 µM | 49.8 µM | > 50 µM | 5.38 µM | 28.1 µM | > 50 µM | 27.9 µM | 2.6 µM | 0.385 µM | 0.462 µM | 7.22 µM | 0.6 µM | 11.3 µM | 0.0917 µM | 7.94 µM | 8.07 µM | 0.558 µM |
| CC[N+]1(C)CCC(O)(c2ccc(OC)cc2)C(C(=O)c2ccc(OC)cc2)C1 (configuration not stated) | 32.6 µM | 11 µM | 41.2 µM | 3.89 µM | 27.8 µM | 4.94 µM | 34.3 µM | 34.8 µM | 5.61 µM | 33.7 µM |  |  |  |  |  |  |  |  |  |  |
| COc1ccc(C(=O)c2cc3c(N)c(C(=O)Nc4ccc(C)cc4)sc3nc2C)cc1 | 9.59 µM | 20.4 µM | 38.2 µM | 11.2 µM | 5.99 µM | > 100 µM | > 100 µM | > 100 µM | > 100 µM | 33.1 µM | 1.5 µM | 2.35 µM | 6.25 µM | 2.06 µM | 0.571 µM | 3.76 µM | 4.94 µM | 4.01 µM | 0.525 µM | 5.59 µM |
| O=C1/C(=C\c2ccccn2)c2ccccc2N1c1c(Cl)cccc1Cl | 5.98 µM |  | 6.92 µM | 4.81 µM | 15.4 µM | > 100 µM | 3.21 µM | 3.3 µM | > 100 µM | 10.2 µM | 2.1 µM | 1.83 µM | 2.26 µM | 1.98 µM | 2.01 µM | 3.31 µM | 1.68 µM | 1.86 µM | 5.07 µM | 3.01 µM |
| C[N+](C)(C)CC(=O)N/N=C(\C(=O)NC1=C(Cl)C(=O)c2ccccc2C1=O)C(C#N)c1csc(-c2ccc([N+](=O)[O-])cc2)n1 (configuration not stated) | > 100 µM | > 100 µM | > 100 µM | > 100 µM | > 100 µM | > 100 µM | > 100 µM | > 100 µM | > 100 µM | > 100 µM |  |  |  |  |  |  |  |  |  |  |
| Cc1sc2c(c1C)C(c1ccc(Cl)cc1)=N[C@@H](CC(=O)OC(C)(C)C)c1nnc(C)n1-2 | 1.46 µM and 1.15 µM | 18.2 µM and 15.1 µM | 25 µM and 18.9 µM | 7.38 µM and 11.6 µM |  | 23 µM and 22.9 µM | 11.2 µM and 13.9 µM | 13.8 µM and 14 µM | 18.7 µM and 17.1 µM | 19.4 µM and 15.6 µM | 0.267 µM and 0.0617 µM | 0.0513 µM and 0.0532 µM | 0.808 µM and 0.645 µM | 0.179 µM and 0.0566 µM | 0.0325 µM and 0.025 µM | 0.644 µM and 0.773 µM | 0.22 µM and 0.0673 µM | 0.379 µM and 0.291 µM | 0.229 µM and 0.0451 µM | 0.756 µM and 0.326 µM |
| COc1ccc(OC)c2c1[nH]c(=O)c1c3ncccc3cn21 | > 100 µM | > 100 µM | > 100 µM | > 100 µM | 62 µM | > 100 µM | 4.29 µM | > 100 µM | > 100 µM | > 100 µM | 3.95 µM | 3.23 µM | 3.21 µM | 4.71 µM | 4.39 µM | 3.32 µM | 1.8 µM | 4.44 µM | 3.43 µM | 4.63 µM |
| NC(=O)c1cccc(Nc2nccc(Nc3cccc4[nH]ncc34)n2)c1 | 22.7 µM | > 25 µM | > 25 µM | > 25 µM | 15.6 µM | > 25 µM | > 18.4 µM | > 25 µM | > 25 µM | > 25 µM | 5 µM | 14.6 µM | 10.5 µM | 8.85 µM | 4.58 µM | 9.14 µM | 6.07 µM | 14.7 µM | 8.72 µM | 8.45 µM |
| COc1cccc(C2c3cc4c(cc3OC(N3CCCC3)C2C)OCO4)c1O (configuration not stated) | 33.7 µM | 68.3 µM | 99.1 µM | 20 µM | 8.29 µM | > 100 µM | > 66.2 µM | 46.9 µM | 25 µM | 35.2 µM |  |  |  |  |  |  |  |  |  |  |
| CN(C)c1nc(=Nc2cccc(Cl)c2)ss1 | 93 µM | 33.4 µM | 51 µM | 15 µM | 66.3 µM | 22.1 µM | 27.8 µM | 47.9 µM | 34 µM | > 100 µM |  |  |  |  |  |  |  |  |  |  |
